Data set [1] deals with Hep3B cells. The data set is described as follows: Metabolism-induced toxicity on DataChip/MetaChip. Conditions: for Change of toxicity in All Mix vs. parent compound: All Mix vs. no enzyme, 3D Hep3B on chip; for CC50: Homo sapiens, Hep3B.
The subject of data set [2] is Hep3B cells.
In data set [3] the test system is Hep3B human hepatoma cell line. Kind of data set: 2D cell viability. Type of data set: cell-based. The following applies: 72 h, read-out: IC50, 2D cultured Hep3B cells in 96-well plates.
Data set [4] deals with humans. Conditions: previously categorized; ref Xu et al. 2008; cited from earlier work.
For data set [5] the following is noted: read-out: 1000* Human Cmax; 1000-fold in vivo human Cmax; cited from earlier work.
The nature of data set [6]: in vitro. The following applies: human.

“Also recorded” adds a separate entry of the source. Read-outs that look alike come from different tables or passages of the source.

As a reminder, the IC50 is the point on the concentration scale where inhibition reaches its midpoint. By Cmax is commonly meant the maximum level reached in the sampled fluid or tissue.

Consider `CC(=O)Nc1ccc(O)cc1` [Acetaminophen], for which the “Change of toxicity in All Mix vs. parent compound” value in data set [1] was “metabolism-induced toxicity”. Moreover, in data set [2], the “Change of toxicity in P450 Mix vs. parent compound” value was “metabolism-induced toxicity”. The IC50 in data set [3] (Homo sapiens, Hep3B) stood at 300 µM. In data set [4], the DILI category result is recorded as “P1”.

For the compound `CCc1oc2ccccc2c1C(=O)c1cc(Br)c(O)c(Br)c1` [Benzbromarone], the IC50 in data set [3] (Homo sapiens, Hep3B) is 58 ± 22 µM. The DILI category result in data set [4] is recorded as “P1”.

`COc1ccccc1Oc1c(NS(=O)(=O)c2ccc(C(C)(C)C)cc2)nc(-c2ncccn2)nc1OCCO` [Bosentan]: in data set [3] (Homo sapiens, Hep3B), the IC50 was 55 ± 20 µM. Moreover, the DILI category result in data set [4] is on record as “P1”.

On to `O=C1CC2(CCCC2)CC(=O)N1CCCCN1CCN(c2ncccn2)CC1` [Buspirone], for which the IC50 in data set [3] (Homo sapiens, Hep3B) came to 170 ± 74 µM. Moreover, in data set [4], the DILI category result is “N1”.

On to `C[C@@](Cc1ccc(O)c(O)c1)(NN)C(=O)O` [Carbidopa], for which the “Change of toxicity in All Mix vs. parent compound” value in data set [1] is listed as “augmented toxicity”. In addition, the “Change of toxicity in P450 Mix vs. parent compound” value in data set [2] was “activated”. The IC50 in data set [3] (Homo sapiens, Hep3B) was 46 ± 28 µM. Moreover, in data set [5], the Cmax is 660 nM. For the same compound, the DILI category entry in data set [4] is listed as “N1”.

For the compound `CCCNC(=O)NS(=O)(=O)c1ccc(Cl)cc1` [Chlorpropamide], the IC50 in data set [3] (Homo sapiens, Hep3B) was determined as 300 µM. Besides, in data set [5], the Cmax is 123000 nM. For the same compound, the DILI category entry in data set [4] is given as “P2”.

Consider `O=C(O)Cc1ccccc1Nc1c(Cl)cccc1Cl` [Diclofenac], for which the IC50 in data set [3] (Homo sapiens, Hep3B) was found to be 120 ± 51 µM. Further, in data set [4], the DILI category entry is listed as “P2”.

Regarding `C[C@]12CC[C@@H]3c4ccc(O)cc4CC[C@H]3[C@@H]1CC[C@@H]2O` [Estradiol], the IC50 in data set [3] (Homo sapiens, Hep3B) was 53 ± 20 µM. For the same compound, in data set [5], the Cmax was 0.1 nM. For the same compound, the DILI category entry in data set [4] is on record as “N3”.

For `CC(Cc1ccc(O)cc1)NCC(O)c1cc(O)cc(O)c1` (stereo not shown) [Fenoterol], the CC50 is 1200 µM in data set [1] (read-out: IC50, 3D cultured Hep3B cells on the Data/MetaChip, All Mix); 1200 µM in data set [1] (read-out: IC50, 3D cultured Hep3B cells on the Data/MetaChip, HLM); 1200 µM in data set [1] (read-out: IC50, 3D cultured Hep3B cells on the Data/MetaChip, No Enzyme). The IC50 in data set [3] (Homo sapiens, Hep3B) is 300 µM; in data set [6], 290 ± 140 µM. Moreover, the Cmax in data set [5] was 0.6 nM. Further, in data set [4], the DILI category result is listed as “P2”.

Turning to `CNCCC(Oc1ccc(C(F)(F)F)cc1)c1ccccc1` (stereo not shown) [Fluoxetine], the Cmax in data set [5] is 97 nM. Besides, the DILI category result in data set [4] is recorded as “N3”.

`CC(C)C(=O)Nc1ccc([N+](=O)[O-])c(C(F)(F)F)c1` [Flutamide]: the “Change of toxicity in All Mix vs. parent compound” value in data set [1] is reported as “statistically less toxicity”. The IC50 in data set [3] (Homo sapiens, Hep3B) turned out to be 45 ± 18 µM. Also, the DILI category entry in data set [4] is recorded as “P2”.

Turning to `CN(C)CCCN1c2ccccc2CCc2ccccc21` [Imipramine], the IC50 in data set [3] (Homo sapiens, Hep3B) is 5 ± 2 µM. Also, the DILI category result in data set [4] was “P2”.

As to `CC(CCc1ccccc1)NCC(O)c1ccc(O)c(C(N)=O)c1` (stereo not shown) [Labetalol], the IC50 in data set [3] (Homo sapiens, Hep3B) is 150 ± 34 µM. For the same compound, the DILI category result in data set [4] is “P2”.

As for `Cc1cccc(Nc2ccccc2C(=O)O)c1C` [Mefenamic acid], in data set [1], the “Change of toxicity in All Mix vs. parent compound” value is given as “statistically less toxicity”. In data set [3] (Homo sapiens, Hep3B), the IC50 was 260 ± 74 µM. In addition, in data set [4], the DILI category entry was “P2”.

Take `CCCOc1ccc2[nH]c(NC(=O)OC)nc2c1` [Oxybendazole]: the “Change of toxicity in All Mix vs. parent compound” value in data set [1] is recorded as “augmented toxicity”. The IC50 in data set [3] (2D monolayer, no enzyme, MTT) came out at 24 ± 18 µM. In addition, the Cmax in data set [5] was 30 nM. Moreover, the DILI category entry in data set [4] is given as “O1”.

For the compound `Nc1ccc(/N=N/c2ccccc2)c(N)n1` [Phenazopyridine], in data set [3] (Homo sapiens, Hep3B), the IC50 turned out to be 55 ± 13 µM. Further, the Cmax in data set [5] is 124 nM. Further, the DILI category entry in data set [4] is reported as “P2”.

Regarding `Cc1ccc(N(CC2=NCCN2)c2cccc(O)c2)cc1` [Phentolamine], in data set [3] (Homo sapiens, Hep3B), the IC50 was 48 ± 9 µM.

As for `CN(C)CCCN1c2ccccc2Sc2ccccc21` [Promazine], in data set [3] (Homo sapiens, Hep3B), the IC50 was 21 ± 3 µM. In addition, the Cmax in data set [5] is 490 nM. Further, the DILI category entry in data set [4] is listed as “N3”.

For the compound `Cc1nc2n(c(=O)c1CCN1CCC(c3noc4cc(F)ccc34)CC1)CCCC2` [Risperidone], in data set [4], the DILI category result is listed as “P2”.

In the case of `CC1=C(CC(=O)O)c2cc(F)ccc2/C1=C\c1ccc([S+](C)[O-])cc1` (stereo not shown) [Sulindac], the “Change of toxicity in All Mix vs. parent compound” value in data set [1] was “statistically less toxicity; also recorded: increased IC50”. For the same compound, the IC50 in data set [3] (Homo sapiens, Hep3B) came out at 300 µM. Besides, the DILI category result in data set [4] is “P2”.

In the case of `O=c1n(CCCN2CCN(c3cccc(Cl)c3)CC2)nc2ccccn12` [Trazodone], in data set [4], the DILI category entry is listed as “P2”.

The values above are taken from paper PMC5867211 (Archives of toxicology, 2017).
